This is an account of results in patent EP0326331B1, “Substituted quinolines and cinnolines” (Dow AgroSciences LLC, priority 1988, dated 1989).

Type in all cases: in vivo
For test [1], the system named is Erysiphe graminis tritici (powdery mildew). Kind of test: Test 1 greenhouse foliar spray screen, powdery mildew on wheat. Particulars: disease control rating, foliar spray on wheat, 400 ppm (+++ at 100 ppm).
Test [2] relates to southern armyworm (Spodopetra eridania Cramer). Kind of test: Mite/insect screen, SAW. Particulars: Spodoptera eridania, percent mortality, SAW, read-out: SAW RESULTS %; for mortality at 200 ppm: SM & MA RATE 200 PPM; for mortality at 400 ppm: SM & MA RATE 400 PPM. An outline of the steps: (§1)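 First, each compound was dissolved in an emulsifier-containing acetone/alcohol mixture and diluted with water. Next, leaves were sprayed until runoff and left to dry for an hour. For southern armyworm, two excised uninfested leaves went into a Petri dish with larvae; percent mortality followed standard exposure periods.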

Test [3] has as its system Puccinia recondita tritici (leaf rust). Kind of test: Test 1 greenhouse foliar spray screen, leaf rust on wheat. Conditions: disease control rating, foliar spray on wheat, 400 ppm (+++ at 100 ppm).
In test [4] the test system is melon aphids (Aphis gossypii Glover). Kind of test: Mite/insect screen, MA. Particulars: Aphis gossypii, percent mortality, SAW, read-out: MA RESULTS %; for mortality at 200 ppm: SM & MA RATE 200 PPM; for mortality at 400 ppm: SM & MA RATE 400 PPM. The method, boiled down: as §1
The next test concerns corn rootworm. Kind of test: Mite/insect screen, CRW. Particulars: percent mortality, read-out: CRW RESULTS %; for mortality at 12 ppm: CRW RATE 12.00 PPM; for mortality at 24 ppm: CRW RATE 24.00 PPM. An outline of the steps:
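Stock in acetone:alcohol 1:1 + TOXIMUL R 23 g/L + TOXIMUL S 13 g/L; diluted with water to indicated concentrations; mortality (%) after standard exposure.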

For test [5], the system named is Septoria tritici (leaf blotch). Kind of test: Test 1 greenhouse foliar spray screen, leaf blotch on wheat. Particulars: disease control rating, foliar spray on wheat, 400 ppm (+++ at 100 ppm).
The test system of test [6] is Venturia inaequalis (apple scab). Kind of test: Test 1 greenhouse foliar spray screen, apple scab on apple seedling. Conditions: disease control rating, foliar spray on apple seedling, 400 ppm (+++ at 100 ppm).
Test [7] has as its system Cercospora beticola (leaf spot). Kind of test: Test 1 greenhouse foliar spray screen, leaf spot on sugar beet. Conditions: disease control rating, foliar spray on sugar beet, 400 ppm (+++ at 100 ppm).
In test [8] the test system is Pyricularia oryzae (rice blast). Kind of test: whole plant or invertebrate. Conditions: disease control rating, foliar spray on rice, 400 ppm (+++ at 100 ppm).
Test [9] concerns Pseudoperonospora cubensis (downy mildew). Kind of test: Test 1 greenhouse foliar spray screen, downy mildew on squash. Conditions: disease control rating, foliar spray on squash, 400 ppm (+++ at 100 ppm).
Test [10] has as its system Twospotted spider mites (Tetranychus urticae Koch). Kind of test: Mite/insect screen, SM. Conditions: Tetranychus urticae, percent mortality, SAW, read-out: SM RESULTS %; for mortality at 200 ppm: SM & MA RATE 200 PPM; for mortality at 400 ppm: SM & MA RATE 400 PPM. An outline of the steps: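 Read-out: percent mortality after standard exposure periods. Test solutions were water dilutions of compound dissolved in acetone/alcohol (50:50) with emulsifier blends; leaves were sprayed to runoff on both surfaces and air-dried for one hour before exposure.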

Test [11] has as its system Botrytis cinerea (gray mold). Kind of test: Test 1 greenhouse foliar spray screen, gray mold on grape berries. Conditions: disease control rating, spray on grape berries, 400 ppm (+++ at 100 ppm).

On to `CC(=O)N(CCc1ccc(C(C)C)cc1)c1ccnc2c(F)cccc12` [Example 129, N-[2-[4-(i-propyl)phenyl]ethyl]-N-(8-fluoro-4-quinolinyl)acetamide], for which the “POWD MDEW” value in test [1] is recorded as “- (0-19% control at 400 ppm)”. Moreover, in test [2], the mortality at 200 ppm came to 0% and the mortality at 400 ppm is 0%. For the same compound, in test [3], the “LEAF RUST” value is reported as “++ (90-100% control at 400 ppm)”. In addition, in [4], the mortality at 200 ppm is 0% and the mortality at 400 ppm is 0%. Further, in the test with corn rootworm, the mortality at 12 ppm stood at 0% and the mortality at 24 ppm was found to be 0%. In addition, the “LEAF BLOT” value in test [5] is “- (0-19% control at 400 ppm)”. Besides, in [6], the “APPL SCAB” value was “+ (20-89% control at 400 ppm)”. For the same compound, the “LEAF SPOT” value in [7] was “- (0-19% control at 400 ppm)”. Further, the “RICE BLAST” value in test [8] is recorded as “+ (20-89% control at 400 ppm)”. In addition, in test [9], the “DOWN MDEW” value is “+ (20-89% control at 400 ppm)”. For the same compound, in test [10], the mortality at 200 ppm was 0% and the mortality at 400 ppm was 0%. In test [11], the “GRAY MOLD” value is reported as “- (0-19% control at 400 ppm)”.
Turning to `Fc1cccc2c(NCCCc3ccc(Cl)cc3)ccnc12` [Example 135, N-[3-(4-chlorophenyl)propyl]-8-fluoro-4-quinolinamine], the “POWD MDEW” value in [1] is “- (0-19% control at 400 ppm)”. Further, in test [2], the mortality at 200 ppm was determined as 0% and the mortality at 400 ppm came out at 0%. Also, the “LEAF RUST” value in test [3] was “- (0-19% control at 400 ppm)”. Besides, in test [4], the mortality at 200 ppm stood at 0% and the mortality at 400 ppm worked out at 0%. For the same compound, in the test with corn rootworm, the mortality at 12 ppm worked out at 0% and the mortality at 24 ppm amounted to 0%. Further, in [5], the “LEAF BLOT” value is “+ (20-89% control at 400 ppm)”. Besides, in [6], the “APPL SCAB” value is on record as “- (0-19% control at 400 ppm)”. For the same compound, in test [7], the “LEAF SPOT” value is “- (0-19% control at 400 ppm)”. Further, the “RICE BLAST” value in [8] was “- (0-19% control at 400 ppm)”. Also, the “DOWN MDEW” value in [9] was “+++ (90-100% control at 100 ppm)”. For the same compound, in test [10], the mortality at 200 ppm is 0% and the mortality at 400 ppm worked out at 0%. Moreover, the “GRAY MOLD” value in [11] is on record as “- (0-19% control at 400 ppm)”.
Take `Clc1ccc(CCCNc2ccnc3cc(Cl)ccc23)cc1` [Example 136, N-[3-(4-chlorophenyl)propyl]-7-chloro-4-quinolinamine]: in [1], the “POWD MDEW” value was “+ (20-89% control at 400 ppm)”. Further, in [2], the mortality at 200 ppm was determined as 0% and the mortality at 400 ppm is 0%. Moreover, the “LEAF RUST” value in [3] is “- (0-19% control at 400 ppm)”. In [4], the mortality at 200 ppm was found to be 0% and the mortality at 400 ppm was determined as 0%. In addition, in the test with corn rootworm, the mortality at 12 ppm was determined as 0% and the mortality at 24 ppm came to 0%. Further, the “LEAF BLOT” value in test [5] is on record as “- (0-19% control at 400 ppm)”. The “APPL SCAB” value in test [6] is recorded as “- (0-19% control at 400 ppm)”. In test [7], the “LEAF SPOT” value is recorded as “- (0-19% control at 400 ppm)”. Further, the “RICE BLAST” value in test [8] is reported as “- (0-19% control at 400 ppm)”. Besides, the “DOWN MDEW” value in [9] was “+++ (90-100% control at 100 ppm)”. In test [10], the mortality at 200 ppm was found to be 0% and the mortality at 400 ppm was 0%. The “GRAY MOLD” value in [11] is “- (0-19% control at 400 ppm)”.
With `c1ccc(CCCNc2ccnc3ccccc23)cc1` [Example 139, N-(3-phenylpropyl)-4-quinolinamine], the “POWD MDEW” value in test [1] is given as “+ (20-89% control at 400 ppm)”. Further, the mortality at 200 ppm in test [2], in [4] and in test [10] was 0% in each case. Also, the “LEAF RUST” value in test [3] was “+ (20-89% control at 400 ppm)”. Further, in the test on corn rootworm, the mortality at 12 ppm stood at 0%. In addition, the “LEAF BLOT” value in test [5] is given as “- (0-19% control at 400 ppm)”. In [6], the “APPL SCAB” value is given as “- (0-19% control at 400 ppm)”. The “LEAF SPOT” value in test [7] is listed as “- (0-19% control at 400 ppm)”. The “RICE BLAST” value in test [8] was “+ (20-89% control at 400 ppm)”. Further, in test [9], the “DOWN MDEW” value is recorded as “++ (90-100% control at 400 ppm)”. Moreover, the “GRAY MOLD” value in test [11] is recorded as “- (0-19% control at 400 ppm)”.
Regarding `Fc1cccc2c(NCCCCc3ccc(Cl)cc3)ccnc12` [Example 140, 8-fluoro-N-[4-(4-chlorophenyl)butyl]-4-quinolinamine], the “POWD MDEW” value in [1] is listed as “+ (20-89% control at 400 ppm)”. Further, in test [2], the mortality at 200 ppm was 0% and the mortality at 400 ppm was found to be 60%. For the same compound, in test [3], the “LEAF RUST” value was “+++ (90-100% control at 100 ppm)”. Further, in [4], the mortality at 200 ppm was found to be 0% and the mortality at 400 ppm turned out to be 0%. Besides, in the test on corn rootworm, the mortality at 12 ppm is 0% and the mortality at 24 ppm was 0%. In addition, in [5], the “LEAF BLOT” value is reported as “+++ (90-100% control at 100 ppm)”. Also, in [6], the “APPL SCAB” value is listed as “+ (20-89% control at 400 ppm)”. For the same compound, the “LEAF SPOT” value in [7] was “+++ (90-100% control at 100 ppm)”. Also, the “RICE BLAST” value in test [8] is “+++ (90-100% control at 100 ppm)”. Moreover, the “DOWN MDEW” value in [9] is given as “+++ (90-100% control at 100 ppm)”. Further, in test [10], the mortality at 200 ppm is 0% and the mortality at 400 ppm was determined as 0%. Also, the “GRAY MOLD” value in test [11] is “- (0-19% control at 400 ppm)”.
With `Fc1cccc2c(NCCC3=CCCCC3)ccnc12` [Example 143, N-[2-(1-cyclohexenyl)ethyl]-8-fluoro-4-quinolinamine], the “POWD MDEW” value in [1] is given as “++ (90-100% control at 400 ppm)”. In test [2], the mortality at 200 ppm is 0% and the mortality at 400 ppm is 0%. Also, the “LEAF RUST” value in [3] is on record as “+++ (90-100% control at 100 ppm)”. In test [4], the mortality at 200 ppm came out at 0% and the mortality at 400 ppm was 0%. Also, in the test with corn rootworm, the mortality at 12 ppm worked out at 0% and the mortality at 24 ppm was 0%. In addition, the “LEAF BLOT” value in test [5] is recorded as “+ (20-89% control at 400 ppm)”. Moreover, the “APPL SCAB” value in test [6] is reported as “- (0-19% control at 400 ppm)”. Besides, in [7], the “LEAF SPOT” value was “+ (20-89% control at 400 ppm)”. Moreover, in test [8], the “RICE BLAST” value was “++ (90-100% control at 400 ppm)”. Further, the “DOWN MDEW” value in test [9] is reported as “+++ (90-100% control at 100 ppm)”. In test [10], the mortality at 200 ppm amounted to 0% and the mortality at 400 ppm worked out at 0%. For the same compound, the “GRAY MOLD” value in test [11] is given as “- (0-19% control at 400 ppm)”.
On to `Cc1cc(C)c2nccc(NCCC3=CCCCC3)c2c1` [Example 144, N-[2-(1-cyclohexenyl)ethyl]-6,8-dimethyl-4-quinolinamine], for which, in [1], the “POWD MDEW” value is given as “- (0-19% control at 400 ppm)”. Besides, in test [2], the mortality at 200 ppm turned out to be 0% and the mortality at 400 ppm worked out at 0%. In [3], the “LEAF RUST” value is given as “++ (90-100% control at 400 ppm)”. Also, in [4], the mortality at 200 ppm turned out to be 0% and the mortality at 400 ppm was 0%. Besides, in the test with corn rootworm, the mortality at 12 ppm stood at 0% and the mortality at 24 ppm is 0%. Moreover, the “LEAF BLOT” value in test [5] is recorded as “- (0-19% control at 400 ppm)”. Also, the “APPL SCAB” value in test [6] is reported as “+ (20-89% control at 400 ppm)”. For the same compound, the “LEAF SPOT” value in test [7] is “+ (20-89% control at 400 ppm)”. The “RICE BLAST” value in test [8] is listed as “+ (20-89% control at 400 ppm)”. Moreover, the “DOWN MDEW” value in test [9] is on record as “+++ (90-100% control at 100 ppm)”. In test [10], the mortality at 200 ppm amounted to 0% and the mortality at 400 ppm amounted to 0%. Further, in [11], the “GRAY MOLD” value is on record as “- (0-19% control at 400 ppm)”.
